Source: patent US9133207B2, “Tetrandrine derivatives with substituted 5-carbon, preparation method and use thereof” (Hangzhou Bensheng Pharmaceutical Co., Ltd., priority 2011, dated 2015)
Converted amounts (≈) assume the structure as drawn.

What was measured:
[1] = test system: H9 (acute lymphoblastic leukemia, ALL); assay: Leukemia cell growth inhibition, MTT, 72 h (Example 5); assay type: cell-based, human; settings: Homo sapiens; 72 h, MTT
Procedure, shortened: (§1)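 An MTT read-out of viable cell concentration follows 72 h incubation (37° C, 5% CO2) of 6000 cells/well in 10% FBS-supplemented 1640 medium with the 5-substituted derivatives at varying concentrations.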

[2] = test system: Jurkat (acute lymphoblastic leukemia, ALL); assay: as above; assay type: cell-based, human; settings: Homo sapiens, Jurkat; 72 h, MTT
Procedure, shortened: as §1

[3] = test system: K562/adr (drug-resistant, chronic myeloid leukemia, CML); assay: as above; assay type: cell-based, human; settings: Homo sapiens, K562/Adr; 72 h, MTT
Procedure, shortened: as §1

[4] = test system: Kasumi-1 (acute myeloid leukemia M2 type, AML-M2); assay: as above; assay type: cell-based, human; settings: Homo sapiens, Kasumi 1
Procedure, shortened: as §1

[5] = test system: NB4 (acute promyelocytic leukemia, AML); assay: as above; assay type: cell-based, human; settings: Homo sapiens; 72 h, MTT
Procedure, shortened: as §1

[6] = test system: RPMI8226 (multiple myeloma); assay: Multiple myeloma cell growth inhibition, MTT, 72 h (Example 6); assay type: cell-based, human; settings: Homo sapiens, RPMI-8226; 72 h, MTT, RPMI8226
Procedure, shortened: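 Viability was read by MTT after 72 h of compound exposure at 37 °C, 5% CO2. Each well held 6000 RPMI8226 cells in 1640 medium containing 10% fetal bovine serum, with derivatives added at various concentrations.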

[7] = test system: CaES-17 (esophageal cancer cell); assay: Solid tumor cell growth inhibition, MTT, 72 h (Example 7); assay type: cell-based, human; settings: Homo sapiens, CaEs17; 72 h, MTT, CAES-17
Procedure, shortened: (§2)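 Cell viability was quantified by MTT 72 h after adding derivatives at different concentrations to 4000 cells/well. Untreated cells served as the 100% reference.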

[8] = test system: MG63 (osteosarcoma); assay: as above; assay type: cell-based, human; settings: Homo sapiens; 72 h, MTT, MG-63
Procedure, shortened: as §2

[9] = test system: PANC-1 (pancreatic cancer); assay: as above; assay type: cell-based, human; settings: Homo sapiens; 72 h, MTT, PANC-1
Procedure, shortened: as §2

[10] = test system: PC-3 (prostate cancer); assay: as above; assay type: cell-based, human; settings: Homo sapiens; 72 h, MTT, PC-3
Procedure, shortened: as §2

[11] = test system: A549 (human lung cancer); assay: as above; assay type: cell-based; settings: Homo sapiens; 72 h, MTT, A549
Procedure, shortened: as §2

[12] = test system: Becap37 (human breast cancer cell); assay: as above; assay type: cell-based; settings: Homo sapiens; 72 h, MTT, Becap-37
Procedure, shortened: as §2

[13] = test system: Huh7 (human liver cancer cell); assay: as above; assay type: cell-based; settings: Homo sapiens; 72 h, MTT, Huh-7
Procedure, shortened: as §2

[14] = test system: MGC 803 (human gastric cancer cell); assay: as above; assay type: cell-based; settings: Homo sapiens
Procedure, shortened: as §2

[15] = test system: RKO (human colon adenocarcinoma cell); assay: as above; assay type: cell-based; settings: Homo sapiens; 72 h, MTT, RKO
Procedure, shortened: as §2

| SMILES | IC50 [1] [µg/mL] | IC90 [1] [µg/mL] | IC50 [2] [µg/mL] | IC90 [2] [µg/mL] | IC50 [3] [µg/mL] | IC90 [3] [µg/mL] | IC50 [4] [µg/mL] | IC90 [4] [µg/mL] | IC50 [5] [µg/mL] | IC90 [5] [µg/mL] | IC50 [6] [µg/mL] | IC90 [6] [µg/mL] | IC50 [7] [µg/mL] | IC90 [7] [µg/mL] | IC50 [8] [µg/mL] | IC90 [8] [µg/mL] | IC50 [9] [µg/mL] | IC90 [9] [µg/mL] | IC50 [10] [µg/mL] | IC90 [10] [µg/mL] | further results |
| --- | --- | --- | --- | --- | --- | --- | --- | --- | --- | --- | --- | --- | --- | --- | --- | --- | --- | --- | --- | --- | --- |
| COc1ccc2cc1Oc1ccc(cc1)C[C@H]1c3cc(c(OC)cc3CCN1C)Oc1c(OC)c(OC)c(CNCC(C)O)c3c1[C@H](C2)N(C)CC3 (stereo partly drawn) [BS-TE-315] | 2.6 (≈ 3.66 µM) | 4.83 (≈ 6.8 µM) | 4.53 (≈ 6.38 µM) | 11 (≈ 15.6 µM) | 4.78 (≈ 6.73 µM) | 10.4 (≈ 14.7 µM) | 1.99 (≈ 2.8 µM) | 7.72 (≈ 10.9 µM) | 1.63 (≈ 2.3 µM) | 5.66 (≈ 7.97 µM) | 0.3 (≈ 0.423 µM) | 2.07 (≈ 2.92 µM) | 2.4 (≈ 3.38 µM) | 20.8 (≈ 29.4 µM) | 1.41 (≈ 1.99 µM) | 3.11 (≈ 4.38 µM) | 5.89 (≈ 8.3 µM) | 14.7 (≈ 20.7 µM) | 6.41 (≈ 9.03 µM) | 8 (≈ 11.3 µM) | IC50 [11]: 1.96 µg/mL (≈ 2.76 µM); IC90 [11]: 9.36 µg/mL (≈ 13.2 µM); IC50 [12]: 2.95 µg/mL (≈ 4.16 µM); IC90 [12]: 9.79 µg/mL (≈ 13.8 µM); IC50 [13]: 3.07 µg/mL (≈ 4.32 µM); IC90 [13]: 4.98 µg/mL (≈ 7.02 µM); IC50 [14]: 3.63 µg/mL (≈ 5.11 µM); IC90 [14]: 10.5 µg/mL (≈ 14.7 µM); IC50 [15]: 1.64 µg/mL (≈ 2.31 µM); IC90 [15]: 3.39 µg/mL (≈ 4.78 µM) |
| COc1ccc2cc1Oc1ccc(cc1)C[C@H]1c3cc(c(OC)cc3CCN1C)Oc1c(OC)c(OC)c(CN3CCC(O)C3)c3c1[C@H](C2)N(C)CC3 (stereo partly drawn) [BS-TE-322] | 1.08 (≈ 1.5 µM) | 2.19 (≈ 3.03 µM) | 1.67 (≈ 2.31 µM) | 3.97 (≈ 5.5 µM) | 1.1 (≈ 1.52 µM) | 3.24 (≈ 4.49 µM) | 1.22 (≈ 1.69 µM) | 3.83 (≈ 5.31 µM) | 0.83 (≈ 1.15 µM) | 3.48 (≈ 4.82 µM) | 0.14 (≈ 0.194 µM) | 0.7 (≈ 0.97 µM) | 1.58 (≈ 2.19 µM) | 9.61 (≈ 13.3 µM) | 1 (≈ 1.39 µM) | 2.24 (≈ 3.1 µM) | 3.29 (≈ 4.56 µM) | 5.41 (≈ 7.49 µM) | 2.26 (≈ 3.13 µM) | 4.06 (≈ 5.62 µM) | IC50 [11]: 1.83 µg/mL (≈ 2.53 µM); IC90 [11]: 6.34 µg/mL (≈ 8.78 µM); IC50 [12]: 2.31 µg/mL (≈ 3.2 µM); IC90 [12]: 4 µg/mL (≈ 5.54 µM); IC50 [13]: 1.42 µg/mL (≈ 1.97 µM); IC90 [13]: 1.94 µg/mL (≈ 2.69 µM); IC50 [14]: 2.29 µg/mL (≈ 3.17 µM); IC90 [14]: > 10 µg/mL; IC50 [15]: 0.9 µg/mL (≈ 1.25 µM); IC90 [15]: 2.4 µg/mL (≈ 3.32 µM) |
| COc1ccc2cc1Oc1ccc(cc1)C[C@H]1c3cc(c(OC)cc3CCN1C)Oc1c(OC)c(OC)c(CN3CCN(CCO)CC3)c3c1[C@H](C2)N(C)CC3 [BS-TE-334] | 1.3 (≈ 1.7 µM) | 2.4 (≈ 3.14 µM) | 1.88 (≈ 2.46 µM) | 7.85 (≈ 10.3 µM) | 1.49 (≈ 1.95 µM) | 5.99 (≈ 7.83 µM) | 1.06 (≈ 1.39 µM) | 3.64 (≈ 4.76 µM) | > 16 | > 16 | 0.05 (≈ 0.0654 µM) | 1.11 (≈ 1.45 µM) | 2.35 (≈ 3.07 µM) | 21.5 (≈ 28.1 µM) | 0.84 (≈ 1.1 µM) | 2.44 (≈ 3.19 µM) | 3.99 (≈ 5.22 µM) | 11 (≈ 14.4 µM) | 3.35 (≈ 4.38 µM) | 6.05 (≈ 7.91 µM) | IC50 [11]: 4 µg/mL (≈ 5.23 µM); IC90 [11]: 14.6 µg/mL (≈ 19.1 µM); IC50 [12]: 3.09 µg/mL (≈ 4.04 µM); IC90 [12]: 8.39 µg/mL (≈ 11 µM); IC50 [13]: 2.55 µg/mL (≈ 3.33 µM); IC90 [13]: 4.38 µg/mL (≈ 5.73 µM); IC50 [14]: 2.22 µg/mL (≈ 2.9 µM); IC90 [14]: 10 µg/mL (≈ 13.1 µM); IC50 [15]: 0.82 µg/mL (≈ 1.07 µM); IC90 [15]: 2.04 µg/mL (≈ 2.67 µM) |
